# Read-outs that look alike come from different tables or passages of the source.
# Columns and labels:
# [1] = Log P by HPLC on reversed phase columns, method [a] (acidic range, 0.1% formic acid)
# Procedure: In the following, measurement of Log P values was performed according to EEC directive 79/831 Annex V.A8 by HPLC (High Performance Liquid Chromatography) on reversed phase columns with the following methods: • ^[a]
# If more than one Log P value is available within the same method, all the values are given and separated by “+”.
# Calibration was done with straight-chain alkan2-ones (with 3 to 16 carbon atoms) with known Log P values (measurement of Log P values using retention times with linear interpolation between successive alkanones).
# Leptnosphaeria nodorum [2] = assay: Example I: comparative data, Leptnosphaeria nodorum in vitro cell test; format: cell-based; conditions: rate of application 4 ppm; 6 days incubation
# [3] = tested on: Colletotrichum lindemuthianum; assay: Example F: Colletotrichum lindemuthianum in vitro cell test; format: cell-based; conditions: 144 h, read-out: efficacy (inhibition of fungal growth)
# Ustilago avenae = assay: Example J: comparative data, Ustilago avenae in vitro cell test; format: cell-based; conditions: rate of application 20 ppm; 4 days incubation
# Botrytis cinerea = assay: Example H: comparative data, in vivo preventive test on Botrytis cinerea (grey mould), gherkin; conditions: rate of application 500 ppm, evaluated 4 to 5 days after inoculation
# Leptnosphaeria nodorum [4] = assay: Example D: Leptnosphaeria nodorum in vitro cell test; format: cell-based; conditions: 144 h, read-out: efficacy (inhibition of fungal growth)
# Pyricularia oryzae = assay: microbe, parasite or virus in culture; format: cell-based; conditions: 120 h, read-out: efficacy (inhibition of fungal growth)
# Septoria tritici = assay: Example L: comparative data, Septoria tritici in vitro cell test; format: cell-based; conditions: rate of application 4 ppm; 7 days incubation
# Procedure: Comparative Data—Septoria tritici In Vitro Cell Test Solvent: DMSOCulture medium: 14.6 g anhydrous D-glucose (VWR), 7.1 g Bacteriological Peptone (Oxoid), 1.4 g granulated Yeast Extract (Merck), QSP 1 literInoculum: spore suspension The compounds to be tested were solubilized in DMSO and the solution used to prepare the required range of concentrations. […] A spore suspension of S. tritici was prepared and diluted to the desired spore density. The tested compounds were evaluated for their ability to inhibit spore germination and mycelium growth in liquid culture assay. The compounds were added in the desired concentration to the culture medium to with spores. […] Inhibition of fungal growth was determined by comparing the absorbance values in wells containing the tested compound with the absorbance in control wells without tested compound.
# [5] = tested on: Colletotrichum lindemuthianum; assay: Example K: comparative data, in vivo preventive test on Colletotrichum lindemuthianum (antrachnose on bean); conditions: rate of application 500 ppm, evaluated 6 days after inoculation
# [6] = logP, HPLC on reversed phase columns, method [a]: acidic range
# [7] = LogP, method [a] / Method A: LC-UV, acidic range
# [8] = 20 ppm of active ingredient, 6 days incubation
# [9] = HPLC on reversed phase columns, method [a]: acidic range
structure (smiles),measurement,setting,value
C=C(C)c1ccnn1-c1ccccc1Nc1cnc2ccccc2c1 [Example I-066],chromatographic logP,[1]; [6],2.73
same,Efficacy in %,Leptnosphaeria nodorum [2],94%
same,inhibition at 20 ppm,[3],80 to 89%
same,Efficacy in %,Ustilago avenae,63%
same,Efficacy in %,Botrytis cinerea,98%
same,inhibition at 20 ppm,Leptnosphaeria nodorum [4],90 to 100%
same,inhibition at 20 ppm,Pyricularia oryzae,90 to 100%
CC(C)(O)c1ccnn1-c1ccccc1Oc1cnc2ccccc2c1 [reference compound],Efficacy in %,Septoria tritici,0%
CC(C)(O)c1ccnn1-c1ccccc1Nc1cnc2ccccc2c1 [Example I-063],Efficacy in %,Septoria tritici,96%
same,chromatographic logP,[1]; [6],1.79
"Fc1cccc2cc(Nc3ccccc3-c3ccnn3Cc3ccccc3)cnc12 [Example I-096, N-[2-(1-benzyl-1H-pyrazol-5-yl)phenyl]-8-fluoroquinolin-3-amine]",chromatographic logP,[1]; [7],3.49
same,chromatographic logP,[1]; [6],3.49
same,inhibition at 20 ppm,[3]; [8],90 to 100%
same,inhibition at 20 ppm,Leptnosphaeria nodorum [4]; [8],90 to 100%
same,inhibition at 20 ppm,Pyricularia oryzae,90 to 100%
"C=C(C)c1ccnn1-c1ccccc1Oc1cnc2ccccc2c1 [drawing 46, reference compound]",Efficacy in %,Botrytis cinerea,20%
CC(C)n1ccc(-c2c(F)cccc2Nc2cnc3ccccc3c2)n1 [Example I-067],logP,[1]; [9],1.94 ^[a]
same,Efficacy in %,Botrytis cinerea,95%
"C=C(C)c1ccnn1-c1ccccc1Oc1cnc2ccccc2c1 [drawing 50, reference compound]",Efficacy in %,Leptnosphaeria nodorum [2],64%
CC(C)n1ccc(-c2c(F)cccc2Nc2cnc3ccccc3c2)n1 [Example I-027],Efficacy in %,[5],65%
same,logP,[1]; [9],4.05 ^[a]
same,inhibition at 20 ppm,Leptnosphaeria nodorum [4],80 to 89%
same,inhibition at 20 ppm,Pyricularia oryzae,90 to 100%
"CC(C)n1ccc(-c2c(F)cccc2Oc2cnc3ccccc3c2)n1 [drawing 54, reference compound]",Efficacy in %,[5],0%
"Cc1nc2c(F)c(F)ccc2cc1Nc1cccc(F)c1-c1ccnn1C [Example I-050, 7,8-difluoro-N-[3-fluoro-2-(1-methyl-1H-pyrazol-5-yl)phenyl]-2-methylquinolin-3-amine]",chromatographic logP,[1]; [7],3.07
same,chromatographic logP,[1]; [6],3.09
same,inhibition at 20 ppm,[3]; [8],90 to 100%
same,inhibition at 20 ppm,Leptnosphaeria nodorum [4]; [8],90 to 100%
same,inhibition at 20 ppm,Pyricularia oryzae,90 to 100%
"CC(C)n1ccc(-c2c(F)cccc2Oc2cnc3ccccc3c2)n1 [drawing 47, reference compound]",Efficacy in %,Botrytis cinerea,68%
"CCn1nccc1-c1ccccc1Nc1cnc2c(F)cccc2c1 [Example I-080, N-[2-(1-ethyl-1H-pyrazol-5-yl)phenyl]-8-fluoroquinolin-3-amine]",chromatographic logP,[1]; [7],2.82
same,chromatographic logP,[1]; [6],2.84
same,inhibition at 20 ppm,[3]; [8],90 to 100%
same,inhibition at 20 ppm,Leptnosphaeria nodorum [4]; [8],90 to 100%
same,inhibition at 20 ppm,Pyricularia oryzae,80 to 89%
"C=C(C)c1ccnn1-c1ccccc1Oc1cnc2ccccc2c1 [drawing 52, reference compound]",Efficacy in %,Ustilago avenae,1%
